Results reported in EP3365068B1, “COSMETIC COMPOSITIONS FOR SKIN WHITENING” (Lumene Oy, priority 2015, dated 2017).

Key:
[1] = tested on: normal human epidermal melanocytes (NHEM); assay: Melanin synthesis under stimulated condition (L-tyrosine-induced, OD at 405 nm); assay type: cell-based; settings: tested at 5 µg/ml, L-tyrosine 1 mM, 10 days
Description: More specifically, the effect of the compound was evaluated on the following parameters: • 1. […] Melanin synthesis in NHEM stimulated by […]. • 3. […] For the tyrosinase activity assay the following concentrations were tested: 0.33, 1, 3, 9, 27 and 81 mg/ml (the spray-dried cloudberry powder was dissolved in assay buffer). For the melanin synthesis and melanocyte dendricity assay the following concentrations were tested: 0.33, 1 and 3 mg/ml (the spray-dried cloudberry powder was dissolved in culture medium). Melanocytes were seeded in 24-well plates and cultured in their culture medium for 24 hours. The medium was then replaced by culture medium containing or not (stimulated control) the inducer (L-Tyrosine) and the test compound of the reference (lipoic acid at 5 µg/ml). […] In parallel, a non-stimulated control was performed. Each experimental condition was performed in n=3. At the end of incubation, melanin was extracted by cell lysis using a 0.5 N NaOH solution. The optical density (OD) of each experimental point was measured at 405 nm and melanin quantity was calculated using melanin standards. Results were expressed in µg/ml of melanin and in percentage of inhibition compared to control.

[2] = tested on: co-culture of NHEM and normal human epidermal keratinocytes (NHEK); assay: Melanocyte dendricity under stimulated condition (IBMX, immunofluorescent labeling and image analysis); assay type: cell-based; settings: tested at 0.025 µg/ml, IBMX 200 µM, 72 hours, read-out: % of inhibition of the formation of dendrites by the melanocytes
Description: Two further assays were carried out to evaluate the whitening effect of the powder, i.e. melanin synthesis in NHEM stimulated by […] and melanocyte dendricity in a co-culture of NHEM and normal human epidermal keratinocytes (NHEK) in presence of IBMX (a melanocyte dendricity stimulating agent) using in situ immunofluorescent labeling and image analysis. As reference substances in these tests lipoic acid and vincristine, respectively, were used.
More specifically, the effect of the compound was evaluated on the following parameters: • 1. Activity of tyrosinase enzyme extracted from NHEM (acellular assay). • 2. Melanin synthesis in NHEM stimulated by […]. • 3. Melanocyte dendricity in a co-culture of NHEM and normal human epidermal keratinocytes (NHEK) in presence of IBMX (a melanocyte dendricity stimulating agent) using in situ immunofluorescent labeling and image analysis.
For the tyrosinase activity assay the following concentrations were tested: 0.33, 1, 3, 9, 27 and 81 mg/ml (the spray-dried cloudberry powder was dissolved in assay buffer). […]
Images were acquired of the wells (10 photos per well). The labeling was quantified by the measurement of the dendrite fluorescence area normalized to the total number of melanocytes.

O=C(O)CCCC[C@@H]1CCSS1 (racemic) [lipoic acid]
% of inhibition of L-tyrosine-induced melanin synthesis [1]: 108%

CC[C@]1(O)C[C@H]2CN(CCc3c([nH]c4ccccc34)[C@@](C(=O)OC)(c3cc4c(cc3OC)N(C=O)[C@H]3[C@@](O)(C(=O)OC)[C@H](OC(C)=O)[C@]5(CC)C=CCN6CC[C@]43[C@@H]65)C2)C1 [vincristine]
inhibition at 0.025 µg/mL [2]: 175%
